The source of these data is the OligoGym collection.

Several values for one entry are separate records, joined by “and”; a condition that tells them apart may be missing. Identical values can stand only once. After the bases stand the sugars from the 5' end (letter, count) and the backbone: PS all phosphorothioate, else s phosphorothioate and o phosphodiester by linkage. Methylation of C is not given here. e = 2'-O-(2-methoxyethyl) (MOE); k = constrained ethyl (cEt); d = 2'-deoxy (DNA)

One series concerns the target IRF4. Conditions: ASO, MM.1R, 0.0625 µM.
With AAGAATGGCGCATAGG (sugars k3 d10 k3, PS), the target mRNA inhibition is -1% and 19%.

For AAGATCTCCATGGTGC (sugars k3 d10 k3, PS), the target mRNA inhibition was found to be 4%. On the same count and under the same terms, the result for AAGCAGTGATGTCAGG (sugars k3 d10 k3, PS) reads 8%. The same measure, in the same setting: the result for AAGCTTAGTTATCTGG (sugars k3 d10 k3, PS) reads -13%.

Staying with this series, now noted: ASO, MM.1R, 0.25 µM.
In the case of AAGAATGGCGCATAGG (sugars k3 d10 k3, PS), the target mRNA inhibition is 12% and 27%. With AAGATCTCCATGGTGC (sugars k3 d10 k3, PS), the target mRNA inhibition is 10%. On the same count and under the same terms, the result for AAGCAGTGATGTCAGG (sugars k3 d10 k3, PS) reads 25%. On the same count and under the same terms, the value for AAGCTTAGTTATCTGG (sugars k3 d10 k3, PS) was -10%.

Still in this series, the particulars now being: ASO, MM.1R, 1 µM.
In the case of AACTAATGTCCCCAGG (sugars k3 d10 k3, PS), the target mRNA inhibition was -12%.

For AACTAGTCGACAGCTA (sugars k3 d10 k3, PS), the target mRNA inhibition was -7%. On the same count and under the same terms, the result for AAGAATGGCGCATAGG (sugars k3 d10 k3, PS) reads 28% and 42%; that for AAGATCTCCATGGTGC (sugars k3 d10 k3, PS), 39% and 29%. As for “AAGCAGTGATGTCAGG (sugars k2 d9 e3 k2, PS)”, the target mRNA inhibition was 62% and 51%. Take AAGCAGTGATGTCAGG (sugars k3 d10 k3, PS): the target mRNA inhibition is 66% and 65%. Still for that read-out and setting: the value for “AAGCAGTGATGTCAGG (sugars kkdddddddddkdkdk, PS)” was 60% and 61%; that for “AAGCATTTTATCATCC (sugars kddddddddddkekek, PS)” was 14%; that for “AAGCATTTTATCATCC (sugars kdddddddddkekeke, PS)” was 6%. On the same count and under the same terms, the result for “AAGCATTTTATCATCC (sugars kkkddddddddkekek, PS)” reads 10%; that for AAGCTTAGTTATCTGG (sugars k3 d10 k3, PS), 35% and 13%. The same measure, in the same setting: the result for “AAGCTTGATAAAGGCT (sugars k2 d9 e3 k2, PS)” reads 53%; that for “AAGCTTGATAAAGGCT (sugars kddddddddddkekek, PS)”, 3%. Regarding “AAGCTTGATAAAGGCT (sugars kdddddddddkekeke, PS)”, the target mRNA inhibition is 2%.

Take AAGGAACAAGTGTATC (sugars k3 d10 k3, PS): the target mRNA inhibition is 13%. As for AAGTCTACAGCCCCAG (sugars k3 d10 k3, PS), the target mRNA inhibition is -5%. For the sequence “AAGTGTCTAAAGTCCC (sugars kddddddddddkekek, PS)”, the target mRNA inhibition is -1%. Same read-out and setting: the value for “AAGTGTCTAAAGTCCC (sugars kkdddddddddekeke, PS)” was 13% and -1%; that for “AAGTGTCTAAAGTCCC (sugars kkdddddddddkdkdk, PS)” was 13% and 21%. The same measure, in the same setting: the result for AATCACCCTGGTCACC (sugars k3 d10 k3, PS) reads 1%. On the same count and under the same terms, the result for AATGTGTATTACTCTT (sugars k3 d10 k3, PS) reads 53% and 41%; that for “AATGTGTATTACTCTT (sugars kkddddddddddkeke, PS)”, 8% and 22%. ACAAAAACTTGGGTCA (sugars k3 d10 k3, PS): the target mRNA inhibition is -13%. Same read-out and setting: the result for ACACAAGTCTTAGGTG (sugars k3 d10 k3, PS) reads -153%; that for “ACACTTTTAGAGAGGA (sugars k2 d9 e3 k2, PS)”, 21%.

As to “ACACTTTTAGAGAGGA (sugars kkdddddddddekeke, PS)”, the target mRNA inhibition was determined as 41%. Same read-out and setting: the value for ACAGTCCACTCCACCC (sugars k3 d10 k3, PS) was 14%. For the sequence “ACAGTGACTTGCATCC (sugars kkddddddddddkeke, PS)”, the target mRNA inhibition is 30%. The same measure, in the same setting: the result for “ACAGTGACTTGCATCC (sugars kkdddddddddekeke, PS)” reads 9%; that for ACATTAAAGGGTAAGC (sugars k3 d10 k3, PS), -23%; that for ACATTGGTACGGGATT (sugars k3 d10 k3, PS), 2%. Regarding ACCACAAGCAGTGATG (sugars k3 d10 k3, PS), the target mRNA inhibition was 1%. The same measure, in the same setting: the value for ACCGAACACACCAGGT (sugars k3 d10 k3, PS) was -14%.

Still in this series, the particulars now being: ASO, MM.1R, 4 µM.
As to AAGAATGGCGCATAGG (sugars k3 d10 k3, PS), the target mRNA inhibition is 55% and 66%. Still for that read-out and setting: the result for AAGATCTCCATGGTGC (sugars k3 d10 k3, PS) reads 56%. Still for that read-out and setting: the result for AAGCAGTGATGTCAGG (sugars k3 d10 k3, PS) reads 75%; that for AAGCTTAGTTATCTGG (sugars k3 d10 k3, PS), 45%.

Staying with this series, now noted: ASO, SK-MEL-28, 4 µM.
With AACAATACTGTAAGGG (sugars k3 d10 k3, PS), the target mRNA inhibition turned out to be 51%. The same measure, in the same setting: the value for AACAATCCTGTACACT (sugars k3 d10 k3, PS) was 22%. The same measure, in the same setting: the result for AACACGGGAATTTCCA (sugars k3 d10 k3, PS) reads 73%; that for AACAGATAACGAGGTG (sugars k3 d10 k3, PS), -4%; that for AACCAGCCCTTGCTGC (sugars k3 d10 k3, PS), 21%. Same read-out and setting: the result for AACCGCTGAACTGAAA (sugars k3 d10 k3, PS) reads 13%; that for AACCGCTGGCAGGTGG (sugars k3 d10 k3, PS), 40%; that for AACCGGTAGAGTGAGA (sugars k3 d10 k3, PS), 6%. With AACGAGTTGACACAGG (sugars k3 d10 k3, PS), the target mRNA inhibition stood at 55%.

In the case of AACGGAAGTTTACACT (sugars k3 d10 k3, PS), the target mRNA inhibition amounted to 59%.

Take AACTGCAGCACCGTGG (sugars k3 d10 k3, PS): the target mRNA inhibition amounted to 45%. On the same count and under the same terms, the result for AACTGGATTGATGTGA (sugars k3 d10 k3, PS) reads 77%. Same read-out and setting: the result for AACTTATAGCACTCTC (sugars k3 d10 k3, PS) reads 28%; that for AACTTTCACCTGTGGG (sugars k3 d10 k3, PS), 50%; that for AACTTTTACCTGGTAT (sugars k3 d10 k3, PS), 28%.

On to AAGAAGCACTGGCATC (sugars k3 d10 k3, PS), for which the target mRNA inhibition was found to be 23%. The same measure, in the same setting: the value for AAGAATGGCGCATAGG (sugars k3 d10 k3, PS) was 81%.

With AAGACTATTAGATAAG (sugars k3 d10 k3, PS), the target mRNA inhibition is 22%. With AAGCAAGTCGGTCCAC (sugars k3 d10 k3, PS), the target mRNA inhibition stood at 32%. For AAGCACTGGCATCGAG (sugars k3 d10 k3, PS), the target mRNA inhibition stood at 27%. On the same count and under the same terms, the value for AAGCATAAAAGGTTCC (sugars k3 d10 k3, PS) was 28%; that for AAGCATAGAGTCACCT (sugars k3 d10 k3, PS) was 36%. On to AAGGAGGTAGTGGCCC (sugars k3 d10 k3, PS), for which the target mRNA inhibition was 47%. Still for that read-out and setting: the result for AAGGGAACAGATAGTT (sugars k3 d10 k3, PS) reads 20%. The same measure, in the same setting: the value for AAGTCATTGCTCTTGT (sugars k4 d8 k4, PS) was 28%; that for AAGTGGACCCCATTGC (sugars k3 d10 k3, PS) was 31%; that for AAGTGTCTTCCACAAG (sugars k3 d10 k3, PS) was 54%. Same read-out and setting: the value for AATAAGATCCCACGAA (sugars k3 d10 k3, PS) was 15%; that for AATACCTACCTGCCCT (sugars k3 d10 k3, PS) was 15%. As for AATACGACAACTTTCC (sugars k3 d10 k3, PS), the target mRNA inhibition was found to be 50%.

As for AATAGAGGAATGGCGG (sugars k3 d10 k3, PS), the target mRNA inhibition came to 53%. Still for that read-out and setting: the value for AATCACTGGAGAGAAC (sugars k3 d10 k3, PS) was 29%.

Regarding AATCATGATATTAGAG (sugars k3 d10 k3, PS), the target mRNA inhibition was determined as 31%. Still for that read-out and setting: the result for AATGAACCCTAAGTTT (sugars k3 d10 k3, PS) reads 3%. Consider AATGACTTAGTCAGAA (sugars k3 d10 k3, PS), for which the target mRNA inhibition was 27%. With AATGATGGCAGTCTAC (sugars k3 d10 k3, PS), the target mRNA inhibition was 33%. For AATGCACCTGGGAGAC (sugars k3 d10 k3, PS), the target mRNA inhibition was determined as 62%. On the same count and under the same terms, the result for AATGGAGCATCCGCTT (sugars k3 d10 k3, PS) reads -7%; that for AATGTCACGCCCGCAA (sugars k3 d10 k3, PS), 19%. Same read-out and setting: the result for AATTTTAAGGCCCTGT (sugars k3 d10 k3, PS) reads 24%. Same read-out and setting: the value for ACAAAACGGACTGGAA (sugars k3 d10 k3, PS) was 14%. As to ACAAATTAAAGAGCGC (sugars k3 d10 k3, PS), the target mRNA inhibition came to 64%.

As to ACACAGGCTAATCAGA (sugars k3 d10 k3, PS), the target mRNA inhibition is 7%.

For the sequence ACACATTAAAGGGTAA (sugars k3 d10 k3, PS), the target mRNA inhibition amounted to 11%. For ACACATTTGAGAGCTA (sugars k3 d10 k3, PS), the target mRNA inhibition was 69%.

With ACAGAAGGGCAACAGT (sugars k3 d10 k3, PS), the target mRNA inhibition was determined as 43%. Still for that read-out and setting: the result for ACAGAGGTGGGAGTAC (sugars k3 d10 k3, PS) reads -74%; that for ACAGGAGCCGCTACAG (sugars k3 d10 k3, PS), 31%. Still for that read-out and setting: the value for ACAGGCGCGGACGCAC (sugars k3 d10 k3, PS) was 20%; that for ACATATTCAATGCACC (sugars k3 d10 k3, PS) was 47%; that for ACATTACTAGATTGTA (sugars k3 d10 k3, PS) was 41%. The same measure, in the same setting: the value for ACCAAGAAATGCACCT (sugars k3 d10 k3, PS) was 57%. As to ACCAAGCTGGGTTTGC (sugars k3 d10 k3, PS), the target mRNA inhibition was determined as 53%. On the same count and under the same terms, the result for ACCAATGGCAGCACCG (sugars k3 d10 k3, PS) reads 61%.

In the case of ACCACGCCCCTCTCCA (sugars k3 d10 k3, PS), the target mRNA inhibition was found to be 9%. Take ACCCACATAACTCAGG (sugars k3 d10 k3, PS): the target mRNA inhibition was found to be 31%. On the same count and under the same terms, the value for ACCCACATCACTGTCT (sugars k3 d10 k3, PS) was 15%; that for ACCTACAAAATGCCTC (sugars k3 d10 k3, PS) was 42%; that for ACCTACCTGCCCTTGG (sugars k3 d10 k3, PS) was 28%.
